Data from PubChem BioAssay (NCI).
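Cultured in 96-well plates, cells were exposed to test compound for 48 hours across five concentrations. The concentration for full growth arrest is given as TGI.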

Key:
Assay in all cases: NCI tumour cell line growth inhibition, 48 h
NCI-H226 lung = system: NCI-H226 lung
HL-60(TB) leukemia = system: HL-60(TB) leukemia
BT-549 breast = system: BT-549 breast
CAKI-1 renal = system: CAKI-1 renal
OVCAR-3 ovarian = system: OVCAR-3 ovarian
HOP-92 NSCLC = system: HOP-92 NSCLC
KM12 colon = system: KM12 colon
SK-MEL-28 melanoma = system: SK-MEL-28 melanoma
HCT-15 colon = system: HCT-15 colon
SF-268 CNS = system: SF-268 CNS
SK-MEL-2 melanoma = system: SK-MEL-2 melanoma
NCI-H460 lung = system: NCI-H460 lung
MDA-N = system: MDA-N
SW-620 colon = system: SW-620 colon
COLO 205 colon = system: COLO 205 colon
RXF 393 renal = system: RXF 393 renal
HCT-116 colon = system: HCT-116 colon
T-47D breast = system: T-47D breast
TK-10 renal = system: TK-10 renal
NCI/ADR-RES ovarian = system: NCI/ADR-RES ovarian
PC-3 prostate = system: PC-3 prostate
ACHN renal = system: ACHN renal
SK-MEL-5 melanoma = system: SK-MEL-5 melanoma
IGROV1 ovarian = system: IGROV1 ovarian
OVCAR-4 ovarian = system: OVCAR-4 ovarian
SN12C renal = system: SN12C renal
HCC-2998 colon = system: HCC-2998 colon
LOX IMVI melanoma = system: LOX IMVI melanoma
MDA-MB-435 = system: MDA-MB-435
MOLT-4 leukemia = system: MOLT-4 leukemia
HT29 colon = system: HT29 colon
UACC-62 melanoma = system: UACC-62 melanoma
SNB-19 CNS = system: SNB-19 CNS
SNB-75 CNS = system: SNB-75 CNS
EKVX NSCLC = system: EKVX NSCLC
OVCAR-5 ovarian = system: OVCAR-5 ovarian
NCI-H23 lung = system: NCI-H23 lung
OVCAR-8 ovarian = system: OVCAR-8 ovarian
RPMI-8226 leukemia = system: RPMI-8226 leukemia
HOP-62 NSCLC = system: HOP-62 NSCLC
UACC-257 melanoma = system: UACC-257 melanoma
CCRF-CEM leukemia = system: CCRF-CEM leukemia
HS 578T breast = system: HS 578T breast
SK-OV-3 ovarian = system: SK-OV-3 ovarian
A498 renal = system: A498 renal
M14 melanoma = system: M14 melanoma
MCF7 breast = system: MCF7 breast
A549 NSCLC = system: A549 NSCLC
UO-31 renal = system: UO-31 renal
U251 CNS = system: U251 CNS
SF-539 CNS = system: SF-539 CNS
NCI-H522 lung = system: NCI-H522 lung
SF-295 CNS = system: SF-295 CNS
786-0 renal = system: 786-0 renal
MDA-MB-231 breast = system: MDA-MB-231 breast
DU-145 prostate = system: DU-145 prostate
MALME-3M melanoma = system: MALME-3M melanoma
SR leukemia = system: SR leukemia

## N=c1c2c3n(c4c(=O)n(-c5ccccc5)c(=S)n(c(=O)n1-c1ccccc1)c24)CCCCC3
NCI-H226 lung
  TGI: > 100 µM
HL-60(TB) leukemia
  TGI: > 100 µM
BT-549 breast
  TGI: > 100 µM
CAKI-1 renal
  TGI: > 100 µM
OVCAR-3 ovarian
  TGI: > 100 µM
HOP-92 NSCLC
  TGI: > 100 µM
KM12 colon
  TGI: > 100 µM
SK-MEL-28 melanoma
  TGI: > 100 µM
HCT-15 colon
  TGI: > 100 µM
SF-268 CNS
  TGI: > 100 µM
SK-MEL-2 melanoma
  TGI: > 100 µM
NCI-H460 lung
  TGI: > 100 µM
MDA-N
  TGI: > 100 µM
SW-620 colon
  TGI: > 100 µM
COLO 205 colon
  TGI: > 100 µM
RXF 393 renal
  TGI: > 100 µM
HCT-116 colon
  TGI: > 100 µM
T-47D breast
  TGI: > 100 µM
TK-10 renal
  TGI: > 100 µM
NCI/ADR-RES ovarian
  TGI: > 100 µM
PC-3 prostate
  TGI: > 100 µM
ACHN renal
  TGI: > 100 µM
SK-MEL-5 melanoma
  TGI: > 100 µM
IGROV1 ovarian
  TGI: > 100 µM
OVCAR-4 ovarian
  TGI: > 100 µM
SN12C renal
  TGI: > 100 µM
HCC-2998 colon
  TGI: > 100 µM
LOX IMVI melanoma
  TGI: > 100 µM
MDA-MB-435
  TGI: > 100 µM
MOLT-4 leukemia
  TGI: > 71.6 µM
HT29 colon
  TGI: > 100 µM
UACC-62 melanoma
  TGI: > 100 µM
SNB-19 CNS
  TGI: > 100 µM
SNB-75 CNS
  TGI: > 100 µM
EKVX NSCLC
  TGI: > 100 µM
OVCAR-5 ovarian
  TGI: > 100 µM
NCI-H23 lung
  TGI: > 100 µM
OVCAR-8 ovarian
  TGI: > 100 µM
RPMI-8226 leukemia
  TGI: > 100 µM
HOP-62 NSCLC
  TGI: > 100 µM
UACC-257 melanoma
  TGI: > 100 µM
CCRF-CEM leukemia
  TGI: > 100 µM
HS 578T breast
  TGI: > 100 µM
SK-OV-3 ovarian
  TGI: > 100 µM
A498 renal
  TGI: > 100 µM
M14 melanoma
  TGI: > 100 µM
MCF7 breast
  TGI: > 100 µM
A549 NSCLC
  TGI: > 100 µM
UO-31 renal
  TGI: > 100 µM
U251 CNS
  TGI: > 100 µM
SF-539 CNS
  TGI: > 100 µM
NCI-H522 lung
  TGI: > 100 µM
SF-295 CNS
  TGI: > 100 µM
786-0 renal
  TGI: > 100 µM
MDA-MB-231 breast
  TGI: > 100 µM
DU-145 prostate
  TGI: > 100 µM
MALME-3M melanoma
  TGI: > 100 µM

## O=C1CN(c2ccc(Cl)cc2)C(=O)CN1CCN1CC(=O)N(c2ccc(Cl)cc2)CC1=O
HL-60(TB) leukemia
  TGI: > 100 µM
BT-549 breast
  TGI: > 100 µM
CAKI-1 renal
  TGI: > 100 µM
OVCAR-3 ovarian
  TGI: > 100 µM
HOP-92 NSCLC
  TGI: > 100 µM
KM12 colon
  TGI: > 100 µM
SK-MEL-28 melanoma
  TGI: > 100 µM
HCT-15 colon
  TGI: > 100 µM
SF-268 CNS
  TGI: > 100 µM
NCI-H460 lung
  TGI: > 100 µM
MDA-N
  TGI: > 100 µM
SW-620 colon
  TGI: > 100 µM
COLO 205 colon
  TGI: > 100 µM
RXF 393 renal
  TGI: > 100 µM
HCT-116 colon
  TGI: > 100 µM
TK-10 renal
  TGI: > 100 µM
SR leukemia
  TGI: > 100 µM
PC-3 prostate
  TGI: > 100 µM
ACHN renal
  TGI: > 100 µM
SK-MEL-5 melanoma
  TGI: > 100 µM
IGROV1 ovarian
  TGI: > 100 µM
OVCAR-4 ovarian
  TGI: > 100 µM
SN12C renal
  TGI: > 100 µM
HCC-2998 colon
  TGI: > 100 µM
MDA-MB-435
  TGI: > 100 µM
MOLT-4 leukemia
  TGI: > 100 µM
HT29 colon
  TGI: > 100 µM
UACC-62 melanoma
  TGI: > 100 µM
SNB-19 CNS
  TGI: > 100 µM
SNB-75 CNS
  TGI: > 100 µM
EKVX NSCLC
  TGI: > 100 µM
OVCAR-5 ovarian
  TGI: > 100 µM
NCI-H23 lung
  TGI: > 100 µM
OVCAR-8 ovarian
  TGI: > 100 µM
RPMI-8226 leukemia
  TGI: > 100 µM
HOP-62 NSCLC
  TGI: > 100 µM
UACC-257 melanoma
  TGI: > 100 µM
CCRF-CEM leukemia
  TGI: > 100 µM
HS 578T breast
  TGI: > 100 µM
SK-OV-3 ovarian
  TGI: > 100 µM
A498 renal
  TGI: > 100 µM
M14 melanoma
  TGI: > 100 µM
MCF7 breast
  TGI: > 100 µM
A549 NSCLC
  TGI: > 100 µM
UO-31 renal
  TGI: > 100 µM
U251 CNS
  TGI: > 100 µM
NCI-H522 lung
  TGI: > 100 µM
SF-295 CNS
  TGI: > 100 µM
786-0 renal
  TGI: > 100 µM
DU-145 prostate
  TGI: > 100 µM
MALME-3M melanoma
  TGI: > 100 µM
